The series deals with CCRIS mutagenicity, Ames/micronucleus/aberration tests. In words: CCRIS mutagenicity studies.
Where [1] appears, read: Test System: AMES SALMONELLA TYPHIMURIUM, Strain/Indicator: TA100, Metabolic Activation: NONE, Method: PREINCUBATION
Setting [2] is: Test System: AMES SALMONELLA TYPHIMURIUM, Strain/Indicator: TA98, Metabolic Activation: NONE, Method: PREINCUBATION
The mark [3] stands for this setting: Test System: AMES SALMONELLA TYPHIMURIUM, Strain/Indicator: TA100, Metabolic Activation: NONE, Method: STANDARD PLATE.
Setting [4] is: Test System: AMES SALMONELLA TYPHIMURIUM, Strain/Indicator: TA1535, Metabolic Activation: NONE, Method: PREINCUBATION
Where [5] appears, read: Test System: AMES SALMONELLA TYPHIMURIUM, Strain/Indicator: TA1537, Metabolic Activation: NONE, Method: PREINCUBATION
[6] abbreviates: Test System: AMES SALMONELLA TYPHIMURIUM, Strain/Indicator: TA98, Metabolic Activation: RAT, LIVER, S-9, AROCLOR 1254 (10%), Method: PREINCUBATION
The mark [7] stands for this setting: Test System: AMES SALMONELLA TYPHIMURIUM, Strain/Indicator: TA100, Metabolic Activation: RAT, LIVER, S-9, AROCLOR 1254 (10%), Method: PREINCUBATION

The source made the active and inactive calls. The rule behind the calls is not given here.

For `CC1(c2ccc(Br)cc2)CO1` (stereo unspecified), the mutagenic call under setting [1] was “inactive; negative”.
Take `Oc1c(Cl)c(Cl)c(Cl)c(Cl)c1Cl`: the mutagenic call is, setting by setting: (End Point: IN VITRO CHROMOSOMAL ABERRATIONS, Test System: CHINESE HAMSTER OVARY CELLS, Metabolic Activation: NONE) “inactive; negative”; (Test System: AMES SALMONELLA TYPHIMURIUM, Strain/Indicator: TA97A, Metabolic Activation: NONE, Method: STANDARD PLATE) “inactive; negative”; (Test System: AMES SALMONELLA TYPHIMURIUM, Strain/Indicator: TA97A, Metabolic Activation: RAT LIVER S-9, AROCLOR 1254, Method: STANDARD PLATE) “inactive; negative”; (Test System: AMES SALMONELLA TYPHIMURIUM, Strain/Indicator: TA98, Metabolic Activation: HAMSTER, LIVER, S-9, AROCLOR 1254, Method: PREINCUBATION) “inactive; negative”; under setting [2], “inactive; negative”; (Test System: AMES SALMONELLA TYPHIMURIUM, Strain/Indicator: TA98, Metabolic Activation: NONE, Method: STANDARD PLATE) “inactive; negative”. The mutagenic call was “inactive; negative” (Test System: AMES SALMONELLA TYPHIMURIUM, Strain/Indicator: TA98, Metabolic Activation: RAT LIVER S-9, AROCLOR 1254, Method: STANDARD PLATE); “inactive; negative” (Test System: AMES SALMONELLA TYPHIMURIUM, Strain/Indicator: TA98, Metabolic Activation: RAT, LIVER, S-9, AROCLOR 1254, Method: PREINCUBATION); “active; positive” (Test System: AMES SALMONELLA TYPHIMURIUM, Strain/Indicator: TA98, Metabolic Activation: RAT, LIVER, S-9, AROCLOR 1254, Method: STANDARD PLATE); “inactive; negative” (Test System: AMES SALMONELLA TYPHIMURIUM, Strain/Indicator: TA100, Metabolic Activation: HAMSTER, LIVER, S-9, AROCLOR 1254, Method: PREINCUBATION); “inactive; negative” under setting [1]; “inactive; negative” under setting [3]. For the same compound, the mutagenic call reads like this: (Test System: AMES SALMONELLA TYPHIMURIUM, Strain/Indicator: TA100, Metabolic Activation: RAT LIVER S-9, AROCLOR 1254, Method: STANDARD PLATE) “inactive; negative”; (Test System: AMES SALMONELLA TYPHIMURIUM, Strain/Indicator: TA100, Metabolic Activation: RAT, LIVER, S-9, AROCLOR 1254, Method: PREINCUBATION) “inactive; negative”; (Test System: AMES SALMONELLA TYPHIMURIUM, Strain/Indicator: TA1535, Metabolic Activation: HAMSTER, LIVER, S-9, AROCLOR 1254, Method: PREINCUBATION) “inactive; negative”; under setting [4], “inactive; negative”; (Test System: AMES SALMONELLA TYPHIMURIUM, Strain/Indicator: TA1535, Metabolic Activation: RAT, LIVER, S-9, AROCLOR 1254, Method: PREINCUBATION) “inactive; negative”; (Test System: AMES SALMONELLA TYPHIMURIUM, Strain/Indicator: TA1537, Metabolic Activation: HAMSTER, LIVER, S-9, AROCLOR 1254, Method: PREINCUBATION) “inactive; negative”. The mutagenic call under setting [5] is “inactive; negative”; the mutagenic call (Test System: AMES SALMONELLA TYPHIMURIUM, Strain/Indicator: TA1537, Metabolic Activation: RAT, LIVER, S-9, AROCLOR 1254, Method: PREINCUBATION) is “inactive; negative”; the mutagenic call (Test System: CHINESE HAMSTER V-79, Strain/Indicator: V-79/6-THIOGUANINE, Metabolic Activation: NONE, Method: STANDARD PLATE) is “inactive; negative”; the mutagenic call (Test System: CHINESE HAMSTER V-79, Strain/Indicator: V-79/6-THIOGUANINE, Metabolic Activation: PRIMARY RAT HEPATOCYTES, Method: STANDARD PLATE) was “inactive; negative”.
For the compound `C=C(C)C(=O)OCCC`, the mutagenic call reads like this: (Test System: AMES SALMONELLA TYPHIMURIUM, Strain/Indicator: TA98, Metabolic Activation: HAMSTER, LIVER, S-9, AROCLOR 1254 (10%), Method: PREINCUBATION) “inactive; negative”; under setting [2], “inactive; negative”; under setting [6], “inactive; negative”; (Test System: AMES SALMONELLA TYPHIMURIUM, Strain/Indicator: TA100, Metabolic Activation: HAMSTER, LIVER, S-9, AROCLOR 1254 (10%), Method: PREINCUBATION) “inactive; negative”; under setting [1], “inactive; negative”; under setting [7], “inactive; negative”. Besides, the mutagenic call by setting is: (Test System: AMES SALMONELLA TYPHIMURIUM, Strain/Indicator: TA1535, Metabolic Activation: HAMSTER, LIVER, S-9, AROCLOR 1254 (10%), Method: PREINCUBATION) “inactive; negative”; under setting [4], “inactive; negative”; (Test System: AMES SALMONELLA TYPHIMURIUM, Strain/Indicator: TA1535, Metabolic Activation: RAT, LIVER, S-9, AROCLOR 1254 (10%), Method: PREINCUBATION) “inactive; negative”; (Test System: AMES SALMONELLA TYPHIMURIUM, Strain/Indicator: TA1537, Metabolic Activation: HAMSTER, LIVER, S-9, AROCLOR 1254 (10%), Method: PREINCUBATION) “inactive; negative”; under setting [5], “inactive; negative”; (Test System: AMES SALMONELLA TYPHIMURIUM, Strain/Indicator: TA1537, Metabolic Activation: RAT, LIVER, S-9, AROCLOR 1254 (10%), Method: PREINCUBATION) “inactive; negative”.
For the compound `CCCCCCNC(=O)n1cc(F)c(=O)[nH]c1=O`, the mutagenic call was “inactive; negative” (Test System: AMES SALMONELLA TYPHIMURIUM, Strain/Indicator: TA98, Metabolic Activation: S-9, Method: STANDARD PLATE); “inactive; negative” under setting [3]; “inactive; negative” (Test System: AMES SALMONELLA TYPHIMURIUM, Strain/Indicator: TA100, Metabolic Activation: S-9, Method: STANDARD PLATE); “inactive; negative” (Test System: AMES SALMONELLA TYPHIMURIUM, Strain/Indicator: TA102, Metabolic Activation: NONE, Method: STANDARD PLATE); “inactive; negative” (Test System: AMES SALMONELLA TYPHIMURIUM, Strain/Indicator: TA1537, Metabolic Activation: NONE, Method: STANDARD PLATE); “inactive; negative” (Test System: AMES SALMONELLA TYPHIMURIUM, Strain/Indicator: TA1537, Metabolic Activation: S-9, Method: STANDARD PLATE). For the same compound, the mutagenic call (Test System: E. COLI, Strain/Indicator: WP2 (HCR), Metabolic Activation: NONE, Method: STANDARD PLATE) was “inactive; negative” and the mutagenic call (Test System: E. COLI, Strain/Indicator: WP2 (HCR), Metabolic Activation: S-9, Method: STANDARD PLATE) was “inactive; negative”.
With `O=C(O)c1ccc(/C=N/n2nnc3c([nH]c4ccccc43)c2=O)cc1`, the mutagenic call is “active; positive” (Test System: AMES SALMONELLA TYPHIMURIUM, Strain/Indicator: TA97, Metabolic Activation: NONE, Method: PREINCUBATION); “active; positive” (Test System: AMES SALMONELLA TYPHIMURIUM, Strain/Indicator: TA97, Metabolic Activation: RAT, LIVER, S-9, AROCLOR 1254 (10%), Method: PREINCUBATION); “active; positive” under setting [2]; “active; positive” under setting [6]; “active; positive” under setting [1]; “active; positive” under setting [7]. For the same compound, the mutagenic call (Test System: AMES SALMONELLA TYPHIMURIUM, Strain/Indicator: TA102, Metabolic Activation: NONE, Method: PREINCUBATION) was “inactive; negative” and the mutagenic call (Test System: AMES SALMONELLA TYPHIMURIUM, Strain/Indicator: TA102, Metabolic Activation: RAT, LIVER, S-9, AROCLOR 1254 (10%), Method: PREINCUBATION) was “active; positive”.

The values are drawn from PubChem BioAssay AID1259407 (Chemical Carcinogenesis Research Information System (CCRIS), 2018).
